Measured values as given in patent US20100009973A1, “Integrase Inhibitors 3” (AVEXA LIMITED, priority 2006, published 2010).

target: T1, HIV integrase (Human immunodeficiency virus type 1 group M subtype B, UniProt P04585); assay: Strand transfer specific assay; format: biochemical; settings: Table 8 cells marked (ST) / (ST assay): strand transfer specific
Experimental: (§1) A combined 3′-processing/strand transfer assay procedure similar to that published (Ovenden et al. Phytochemistry. 2004 December; 65(24):3255-9.) was used. This assay was adapted to a 96 well plate format. Briefly, 400 ng of […] is incubated with 30 nM substrate DNA, consisting of annealed U5 LTR sequence oligonucleotides tagged with Digoxigenin (DIG; 5′-[…]-DIG-3′) or biotin (5′-Bio-[…]-3′) so that each substrate has either a DIG or Bio tag on opposite strands. Reactions are carried out for 2 hrs at 37° C., products generated as a result of 3′processing and strand transfer activity are bound to streptavidin plates and detected with using anti-DIG-alkaline phosphatase conjugate and p-nitro phenyl phosphate substrate.
The strand transfer specific assay is of similar format to that of the 3′processing/strand transfer combined assay except that it uses a biotinylated substrate that represents a pre-processed LTR end (5′-Bio-[…]-3′).

Compound | IC50 [µM]
Cc1cc(-c2cc(-c3ccc(N4CCOCC4)cc3)nc(OCc3ccc(C(=O)O)cc3Br)c2C#N)on1 [compound 15300] | < 10
CCOc1cnc(-c2cc(-c3ccc(N4CCOCC4)cc3)nc(OCc3ccc(C(=O)O)cc3Br)c2C#N)o1 [compound 15303] | < 10
CCOc1cnc(-c2cc(-c3ccc(N4CCOCC4)cc3)nc(OCc3sc(C(=O)O)cc3C#N)c2C#N)o1 [compound 15424] | < 10
N#Cc1c(-c2oncc2C(=O)O)cc(-c2ccc(N3CCOCC3)cc2)nc1OCc1ccc(C(=O)O)s1 [compound 15435] | < 10

target: T1, HIV integrase; assay: 3'processing/strand transfer combined assay; format: biochemical; settings: not given
Experimental: as §1

Compound | IC50 [µM]
N#Cc1c(-c2ccoc2)cc(-c2ccc(N3CCOCC3)cc2)nc1OCc1ccc(C(=O)O)s1 [compound 14483] | 10 to 50

same assay, conditions: Table 8 cells that name no assay; taken as the 3'processing/strand transfer combined assay; read-out: IC50

Compound | IC50 [µM]
N#Cc1c(-c2ccoc2)cc(-c2ccc(N3CCOCC3)cc2)nc1OCc1ccc(C(=O)O)cc1 [compound 14353] | < 10
Cc1cc(C(=O)O)ccc1COc1nc(-c2ccc(N3CCOCC3)cc2)cc(-c2ccoc2)c1C#N [compound 14499] | < 10
N#Cc1c(-c2ccoc2)cc(-c2ccc(N3CCOCC3)cc2)nc1OCc1nc(C(=O)O)cs1 [compound 14693] | < 10
N#Cc1c(-c2ccoc2)cc(-c2ccc(N3CCOCC3)cc2)nc1OCc1nc(C(=O)O)co1 [compound 14761] | 10 to 50
N#Cc1cc(C(=O)O)sc1COc1nc(-c2ccc(N3CCOCC3)cc2)cc(-c2ccoc2)c1C#N [compound 14905] | < 10
N#Cc1c(-c2ccoc2)cc(-c2ccc(N3CCOCC3)cc2)nc1OCc1c(C(=O)O)csc1Br [compound 14906] | < 10
Cc1cc(-c2cc(-c3ccc(N4CCOCC4)cc3)nc(OCc3ccc(C(=O)O)s3)c2C#N)on1 [compound 14959] | 10 to 50
CCOc1cnc(-c2cc(-c3ccc(N4CCOCC4)cc3)nc(OCc3ccsc3C(=O)O)c2C#N)o1 [compound 14963] | 10 to 50
CCOc1cnc(-c2cc(-c3ccc(N4CCOCC4)cc3)nc(OCc3csc(C(=O)O)c3)c2C#N)o1 [compound 15044] | 10 to 50
Cc1cc(-c2cc(-c3ccc(N4CCOCC4)cc3)nc(OCc3csc(C(=O)O)c3)c2C#N)on1 [compound 15045] | < 10

tested on: HIV; assay: Inhibition of HIV replication (extracellular p24); format: cell-based; settings: Human immunodeficiency virus 1; concentration inhibiting HIV p24 production to 50% of no drug controls
Experimental: Cells are seeded into 96 well microtitre plates at 50,000 cells per 50 ul per well in RF-10 containing 2 μg/mL polybrene (RF-10/2). Compounds are prepared to 4× final concentration in RF-10/2, and 30 μL added to cells. Virus (40 μL in RF-10/2 containing 1600 pfu) is added to each well or 40 μL RF-10/2 for negative controls and for assaying compound cytotoxicity. After 24 hrs, an additional 90 μL of media or media containing 1× compound is added to each well. At 4 days post infection, 100 μL of media is removed from each well and replaced with 100 μl of fresh media with or without compound. Forty eight hours later supernatants are harvested and levels of extracellular p24 determined. Supernatants are diluted 1 in 10,000 and p24 levels assayed using the Vironostika p24 assay kit. EC50 is calculated as the concentration required to inhibit HIV p24 production to 50% that of no drug controls.

Compound | EC50 [µM]
N#Cc1c(-c2ccoc2)cc(-c2ccc(N3CCOCC3)cc2)nc1OCc1ccc(C(=O)O)s1 [compound 14483] | < 10
